Assay results reported in patent publication US12448372B2, “Class of triaromatic compounds targeting bifunctional phosphorylation site of STAT3 and applications thereof” (SHANGHAI YUYAO BIOTECH LTD., priority 2019, dated 2025).
Read-outs that look alike come from different tables or passages of the source.

Tests used:
STAT3 protein = STAT3 protein (Homo sapiens, UniProt P40763); experiment: Binding activity to STAT3 protein by microscale thermophoresis (MST); settings: purified STAT3 recombinant protein
Text: (1) Determination of Binding Activities of Compounds to STAT3 Protein by Microscale Thermophoresis (MST) Method
(§1) The microscale thermophoresis (MST) technique is a simple, rapid, and accurate method for quantifying biomolecular interactions. It can measure the movement of molecules in a microscopic temperature gradient field, as well as detect changes of molecular hydration shell, charge and size. When the Nanotemper microscale thermophoresis instrument locally heated by a infrared laser, molecules will move in a directional manner, then the molecular distribution ratio in the temperature gradient field are analyzed by a fluorescence to detect whether a small molecule compound binds to a target protein. The experimental operation is as follows: firstly, compounds to be tested are diluted in a gradient using MST test buffer, total 16 concentrations being configured; subsequently, the purified STAT3 recombinant protein is labeled using the HIS tag labeling kit, and the final concentration of the labeled protein is 100-200 nM; the labeled STAT3 proteins are well mixed with the diluted compounds and incubated and protected from light for 30 minutes; finally the samples were loaded by capillary tube and detected on the instrument. The binding constants (K^D) of small molecules to STAT3 protein were analyzed by Mo. analysis software.

Capan-2 = experiment: Cell proliferation by MTS method, Capan-2; type: cell-based
Text: (§2) (2) Detection of Cell Proliferation by MTS Method
(§3) The MTS assay is a method for indirectly determining the number of living cells via colourimetric method. MTS is a newly synthesised tetrazole compound that reflects cell viability, which can be reduced by succinate dehydrogenase in the mitochondria of living cells to an orange-coloured formazan with an absorbance of the reduced product measured at 490 nm being in proportion to the number of living cells, thus reflecting the cell viability. This assay can be used to evaluate the effect of the compound on the proliferation of pancreatic cancer cells, thereby determining the inhibitory effect of the compound on the proliferation of pancreatic cancer cells and to calculate the IC^50. Each cells were inoculated uniformly into a 96-well plate at a density of 1-20×10^3 cells/well, 100 μL per well, and placed in a constant temperature incubator until the cells adhered to the wall. The control group was added with the corresponding medium and the experimental groups were given different concentrations of the compound prepared by the examples of the present invention, and the cells were taken out 24-96 h after administration for observing the cell state under a microscope. Under light-proof conditions, MTS was added and well mixed, the mixture was placed in a constant temperature incubator at 37° C., and the light absorption value were measured using an enzyme marker at 490 nm and the experiment was repeated for three times, IC50 was calculated with GraphPad5 Prism software.

MKN45 = experiment: Cell proliferation by MTS method, MKN45; type: cell-based; settings: Homo sapiens, MKN-45; Table 1, MKN45; read-out: Tumour cell proliferative activity/IC50(nM) gastric Cancer MKN45
Text: as §2, §3

Huh7 = experiment: Cell proliferation by MTS method, Huh7; type: cell-based; settings: Homo sapiens, Huh-7; Table 1, Huh7; read-out: Tumour cell proliferative activity/IC50(nM) Liver Cancer Huh7
Text: as §2, §3

HCC827 = experiment: Cell proliferation by MTS method, HCC827; type: cell-based; settings: Homo sapiens; Table 1, HCC827; read-out: Tumour cell proliferative activity/IC50(nM) Lung Cancer HCC827
Text: as §2, §3

STAT3 SH2 domain = STAT3 SH2 domain (Homo sapiens, UniProt P40763); experiment: Microscale thermophoresis binding to STAT3 SH2 domain; settings: MST, FIG. 5A; read-out: affinity for the STAT3 SH2 domain
Text: as §1
(1) Microscale Thermophoresis Experiment
The method is as described in Example 40.

[1] = dose of 25 mg/kg, cited from earlier work
[2] = Homo sapiens, Table 1, Capan-2, read-out: Tumour cell proliferative activity/IC50(nM) Pancreatic Cancer Capan-2

Chain of STAT3 protein (P40763 whole entry): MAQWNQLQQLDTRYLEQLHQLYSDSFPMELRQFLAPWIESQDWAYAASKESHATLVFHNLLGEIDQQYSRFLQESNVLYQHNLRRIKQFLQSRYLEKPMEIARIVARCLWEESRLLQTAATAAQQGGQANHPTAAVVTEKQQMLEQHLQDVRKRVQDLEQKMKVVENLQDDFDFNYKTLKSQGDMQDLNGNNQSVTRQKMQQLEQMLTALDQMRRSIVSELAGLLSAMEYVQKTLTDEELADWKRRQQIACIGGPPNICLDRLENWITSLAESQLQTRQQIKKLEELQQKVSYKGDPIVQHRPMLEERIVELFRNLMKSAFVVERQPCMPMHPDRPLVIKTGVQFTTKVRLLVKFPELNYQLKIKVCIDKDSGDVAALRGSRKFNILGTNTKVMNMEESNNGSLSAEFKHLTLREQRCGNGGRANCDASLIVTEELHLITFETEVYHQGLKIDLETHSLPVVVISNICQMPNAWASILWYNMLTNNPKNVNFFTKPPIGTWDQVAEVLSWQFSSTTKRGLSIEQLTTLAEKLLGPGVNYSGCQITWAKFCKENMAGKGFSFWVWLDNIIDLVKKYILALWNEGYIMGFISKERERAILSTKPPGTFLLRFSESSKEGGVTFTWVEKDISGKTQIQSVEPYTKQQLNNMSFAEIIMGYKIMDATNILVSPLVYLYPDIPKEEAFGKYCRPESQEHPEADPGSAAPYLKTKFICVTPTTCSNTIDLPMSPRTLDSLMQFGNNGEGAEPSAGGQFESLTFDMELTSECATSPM
Chain of STAT3 SH2 domain (P40763 580-670 limits assumed): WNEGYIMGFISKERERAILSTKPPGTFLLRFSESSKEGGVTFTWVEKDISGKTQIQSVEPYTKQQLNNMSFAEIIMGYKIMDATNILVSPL

Row | Structure (SMILES) | Kd (STAT3 protein) [µM] | IC50 (MKN45) [nM] | IC50 (Huh7) [nM] | IC50 (HCC827) [nM] | IC50 (Capan-2; [2]) [nM] | IC50 (Capan-2; Capan-2, FIG. 5B, read-out: IC50, inhibition of proliferation of pancreatic cancer cells) [nM] | Kd (STAT3 SH2 domain) [µM] | mortality in the mouse model ([1]; 25 mg/kg) | mortality in the mouse model ([1]; listed as IACS-101759, 25 mg/kg) | IC50 (Capan-2; Homo sapiens, Capan-2, FIG. 5B, read-out: IC50, inhibition of proliferation of pancreatic cancer cells) [nM] | improvement of anti-tumor proliferative activity over OPB51602 and IACS-010759 (Capan-2; pancreatic cancer cells, FIG. 5B) [times]
1 | Cn1c(C(=O)N2CCN(Cc3ccccc3OCC(F)(F)F)CC2)cc2ccc(Oc3cnc(-c4nc(-c5ccc(C(F)(F)F)cc5)no4)cn3)cc21 [Example 33, (1-methyl-6-((5-(3-(4-(trifluoromethyl)phenyl)-1,2,4-oxadiazol-5-yl)pyrazin-2-yl)oxy)-1H-indol-2-yl)(4-(2-(2,2,2-trifluoroethoxy)benzyl)piperazin-1-yl)methanone] | < 0.1 | < 1000 | < 1000 | < 1000 | < 1000 | – | – | – | – | – | –
2 | Cc1nc(-c2nc(-c3ccc(OC(F)(F)F)cc3)no2)nn1Cc1cccc(N2CCC(S(C)(=O)=O)CC2)c1 [IACS-010759, reference compound] | – | – | – | – | – | 2.7 | 2.78 | all mice in the administered group died | all mice died | – | –
3 | Cn1c(C(=O)N2CCN(Cc3ccccc3)CC2)cc2ccc(Oc3cnc(-c4nc(-c5ccc(C(F)(F)F)cc5)no4)cn3)cc21 [Example 23, (4-benzylpiperazin-1-yl)(1-methyl-6-((5-(3-(4-(trifluoromethyl)phenyl)-1,2,4-oxadiazol-5-yl)pyrazin-2-yl)oxy)-1H-indol-2-yl)methanone] | < 0.1 | < 1000 | < 1000 | < 1000 | < 1000 | – | – | – | – | – | –
4 | Cn1c(C(=O)N2CCN(C(=O)c3ccc(C(F)(F)F)cc3)CC2)cc2ccc(Oc3cnc(-c4nc(-c5ccc(C(F)(F)F)cc5)no4)cn3)cc21 [Example 39] | < 0.1 | < 1000 | < 1000 | < 1000 | < 1000 | – | – | – | – | – | –

The next lines start with results.

Row | Kd (STAT3 protein) [µM] | IC50 (MKN45) [nM] | IC50 (Huh7) [nM] | IC50 (HCC827) [nM] | Structure (SMILES) | IC50 (Capan-2; [2]) [nM] | IC50 (Capan-2; Capan-2, FIG. 5B, read-out: IC50, inhibition of proliferation of pancreatic cancer cells) [nM] | Kd (STAT3 SH2 domain) [µM] | mortality in the mouse model ([1]; 25 mg/kg) | mortality in the mouse model ([1]; listed as IACS-101759, 25 mg/kg) | IC50 (Capan-2; Homo sapiens, Capan-2, FIG. 5B, read-out: IC50, inhibition of proliferation of pancreatic cancer cells) [nM] | improvement of anti-tumor proliferative activity over OPB51602 and IACS-010759 (Capan-2; pancreatic cancer cells, FIG. 5B) [times]
5 | < 0.01 | < 10 | < 10 | < 10 | CCn1c(C(=O)N2CCN(Cc3ccc(OCC(F)(F)F)cc3)CC2)cc2ccc(Oc3cnc(-c4nc(-c5ccc(C(F)(F)F)cc5)no4)cn3)cc21 [Example 15, (1-ethyl-6-((5-(3-(4-(trifluoromethyl)phenyl)-1,2,4-oxadiazol-5-yl)pyrazin-2-yl)oxy)-1H-indol-2-yl)(4-(4-(2,2,2-trifluoromethoxy)benzyl)piperazin-1-yl)methanone] | < 10 | – | – | – | – | – | –
6 | < 0.001 | < 1 | < 1 | < 1 | Cn1c(C(=O)N2CCN(Cc3ccc(OCC(F)(F)F)cc3)CC2)cc2ccc(Oc3cnc(-c4nc(-c5ccccc5C(F)(F)F)no4)cn3)cc21 [Example 7, (6-((5-(3-(2-(trifluoromethyl)phenyl)-1,2,4-oxadiazol-5-yl)pyrazin-2-yl)oxy)-1-methyl-1H-indol-2-yl)(4-(4-(2,2,2-trifluoroethoxy)benzyl)piperazin-1-yl)methanone] | < 1 | – | – | – | – | 0.49 | 10
